# Experimental data: patent publication US20250114377A1, “TWO-PRONGED TREATMENT FOR NIEMANN PICK TYPE C DISEASE” (UNIVERSITY OF NOTRE DAME DU LAC, priority 2022, published 2025)
# Entries after “also recorded” stand apart in the source; their conditions may differ.
# Experiments:
# [1] = system: NPC1 mutant (null or I1061T) cells; assay: Rescue of lysosomal tubulation by 27-HC in NPC1 mutant cells (FIG. 5); assay type: cell-based; settings: 27-HC in a cocktail that bypasses receptor-mediated endocytosis
# Text: FIG. 5. Impact of NPC1 and StARD9 Mutations on Rescue of Lysosomal Tubulation by 27-Hydroxycholesterol (27-HC). The ability of 27-HC to rescue lysosomal tubulation after depletion of NPC1 (shRNA-NPC1) or StARD9 (shRNA-STARD9) was compared to cells expressing the NPC1 (I1061T)-eGFP mutant (I1061T) or a eGFP-StARD9 construct expressing amino acids 1-4483 (STARD9-ΔSTART). ***—p<0.005; ns (not significant).
# (§1) To test this idea, we treated either NPC1 mutant (null or I1061T) or StARD9 mutant (null or truncation mutant) cells with 27-HC in a cocktail that delivers it into the cytoplasm independent of receptor-mediated endocytosis. […] Next, we treated NPC1(−/−) mice with 27-HC by i.p. delivery.
# NPC1(−/−) mice = assay: 27-HC treatment of NPC1(−/−) mice by intraperitoneal injection; assay type: in vivo; settings: i.p.
# Procedure: FIG. 7A-C. Behavioral Analysis of NPC1(−/−) Mice Treated with 27-HC. NPC1(−/−) treated with 0 mg/kg (●) or 10 mg/kg (▴) 27-HC once per week by intraperitoneal injection were tested using (A) Tremor Scores p=0.01), (B) Rotarod Analysis (p=0.0037) or (C) Coathanger Tests (p=0.0229).
# FIG. 8. Impact of 27-HC Treatment on NPC1 (−/−) Mice. Immunohistochemical staining of cerebella stained for calbindin after treatment with either Omg/kg or 10 mg·kg 27-HC once per week by intraperitoneal injection. Brown staining indicates Purkinje cell survival in lobes of the cerebellum (I, V, X).
# FIG. 9A-C. Impact of 27-HC Treatment on NPC1 (−/−) Mice. Quantification of Purkinje cells preservation at days (A) P42, (B) P63 or (C) P77. Lobes are binned as I-V, VI-VII, VIII, or IX-X. A Student's t-test was calculated on total Purkinje cell counts from each timepoint (p-values).
# FIG. 10. Impact of 27-HC Treatment on NPC1 (−/−) Mice. Kaplan-Meier lifespan analysis of NPC1 (−/−) mice treated with either 0 mg/kg (dashed line) or 10 mg/kg (solid line) 27-HC.
# as §1
# [2] = in vivo
# Procedure: Studies have tested treatment 1× per week and 3× per week. However, from pharmacokinetic studies, it is known that 27-HC levels are only retained for 1-2 days. We will increase to daily treatment by oral gavage and measure serum levels of 27-HC to confirm maintenance of therapeutic levels. […] We will increase to higher doses by adding higher levels of DMSO to allow treatment with 20 mg/kg and 40 mg/kg.
# We anticipate an increased benefit from treatment on a daily basis because the pharmacokinetics inform us about how long 27-HC remains in the blood (-100 ng/ml for 12 hours). For reference, children treated with Miglustat are dosed 3× per day. Higher doses of 27-HC and alternative cocktails are expected to reveal which parameters are more important for success. […] When crossed with NPC1(−/−) mice, they observe a significant decrease in NPC disease symptoms and an extension of lifespan (personal communication). This provides independent validation of the benefits associated with treatment with 27-HC. Finally, we expect improved outcomes for mice treated from conception over waiting until weaning (P21). This is because there is such a long window of brain development and maturation from conception to P21, that any developmental aspect of NPC disease would be well underway before we begin treatment at weaning.
# NPC mutant mice = assay: Therapeutic administration of 27-HC in two transgenic strains of mice with NPC1 mutations (summary); assay type: in vivo
# Text: Mutations in the NPC1 gene affect two independent lysosomal functions. The first is the generation of lysosomal tubules as a mechanism to deliver intracellular cholesterol to other membrane-bound compartments. Because this function is impaired in NPC disease, we investigated the protein components necessary for tubule projection. We identified 27-HC as a signaling molecule that stimulates lysosomal tubulation and is not provided properly to lysosomal membrane to elicit tubulation in NPC disease. To correct this defect, we provide pure 27-HC in a cocktail that bypasses endocytosis. […] We have also tested this therapy in two different transgenic strains of mice with NPC1 mutations. […] Because we know the molecular target for 27-HC (StARD9), we tested 27-HC treatment in mice where we removed the StARD9 gene. […] This confirms the molecular target for 27-HC treatment and is consistent with our proposed model for the defects in NPC disease. Independent of the role for NPC1 in lysosomal tubulation, NPC1 is the “receptor” for the pro-apoptotic protein STING. STING is a signaling molecule that is activated by cell insults, including defective cholesterol transport. Once STING is activated, it triggers programmed cell death pathways. Counteracting STING activation, STING is silenced by binding to lysosomes, which leads to STING degradation and inactivation of this pathway. This silencing is required to prevent STING activation to proceed long-term. We recently discovered that the “receptor” on lysosomes that drives STING silencing is also NPC1. In cells mutant for NPC1, STING silencing is impaired, thereby leading to programmed cell death. As a result, NPC1 mutations cause cell death in two different ways. They cause loss of lysosomal tubulation, and they cause perpetual activation of STING.
# We further propose that NPC1 is required for two functions in cells. The first is cholesterol transport from the lysosome to ER. If this activity is impaired, cells are “starved” of cholesterol in the ER. This has consequences for cholesterol metabolism and activates STING. Second, NPC1 in the lysosome is the receptor for STING that is required for STING silencing. In the absence of NPC1, STING remains active after initial activation (Priming) but also amplifies the responses including apoptosis. The dual roles of NPC1 are consistent with results across the NPC field. First, this explains why our StARD9 (−/−) mice are less severe than NPC1 (−/−) mice. NPC1(−/−) mice cause STING activation and impair STING silencing. […] Second, NPC1 (−/−) mice are more severe than NPC1 (I1061 T/I1061 T) mice because the NPC1 […] mice must reduce STING activation and retain some STING silencing compared to nulls.
# [3] = two transgenic strains with NPC1 mutations
smiles,measurement,setting,value
"C[C@@H](CO)CCC[C@@H](C)[C@H]1CC[C@H]2[C@@H]3CC=C4C[C@@H](O)CC[C@]4(C)[C@H]3CC[C@]12C [27-HC, 27-hydroxycholesterol]",Rescue of lysosomal tubulation in NPC1 mutant cells,[1],rescued lysosomal tubulation in NPC1 mutant; also recorded: corrects the lysosomal tubulation defects
same,Lifespan (Kaplan-Meier),"NPC1(−/−) mice; 10 mg/kg vs 0 mg/kg, p=0.0214",extended the lifespan of the mice; also recorded: Extension of lifespan was significant
same,Onset of symptoms,NPC1(−/−) mice; vs vehicle alone,delayed the onset of symptoms
same,Purkinje cell preservation,NPC1(−/−) mice; vs vehicle alone,preserved Purkinje cells
same,Severity of symptoms,NPC1(−/−) mice; vs vehicle alone,reduced the severity of symptoms
same,How long 27-HC remains in the blood,[2],12 h
same,Time 27-HC levels are retained,[2],1 to 2 days
same,27-HC level in the blood,[2]; 12 hours,-100 ng/mL
same,Overall improvement for NPC1 mutant mice,"NPC mutant mice; mouse, in vivo",statistically-significant improvement
same,Lifespan of mutant mice,NPC mutant mice; [3],extends the lifespan of mutant mice significantly
same,Lysosomal tubulation in NPC mutant mice,NPC mutant mice; [3],rescues lysosomal tubulation
same,"Onset, severity and progression of NPC disease",NPC mutant mice; [3],"delays the onset, severity and progression of NPC disease"
